Source: publication PMC2682573, “A Novel Two Mode-Acting Inhibitor of ABCG2-Mediated Multidrug Transport and Resistance in Cancer Chemotherapy” (PLoS ONE, 2009)

How the values were obtained:
[1] = target: T1, ABCG2 (Homo sapiens, UniProt Q9UNQ0); conditions: hek293/abcg2 inside-out membrane vesicles
T1 sequence (Q9UNQ0 1-655): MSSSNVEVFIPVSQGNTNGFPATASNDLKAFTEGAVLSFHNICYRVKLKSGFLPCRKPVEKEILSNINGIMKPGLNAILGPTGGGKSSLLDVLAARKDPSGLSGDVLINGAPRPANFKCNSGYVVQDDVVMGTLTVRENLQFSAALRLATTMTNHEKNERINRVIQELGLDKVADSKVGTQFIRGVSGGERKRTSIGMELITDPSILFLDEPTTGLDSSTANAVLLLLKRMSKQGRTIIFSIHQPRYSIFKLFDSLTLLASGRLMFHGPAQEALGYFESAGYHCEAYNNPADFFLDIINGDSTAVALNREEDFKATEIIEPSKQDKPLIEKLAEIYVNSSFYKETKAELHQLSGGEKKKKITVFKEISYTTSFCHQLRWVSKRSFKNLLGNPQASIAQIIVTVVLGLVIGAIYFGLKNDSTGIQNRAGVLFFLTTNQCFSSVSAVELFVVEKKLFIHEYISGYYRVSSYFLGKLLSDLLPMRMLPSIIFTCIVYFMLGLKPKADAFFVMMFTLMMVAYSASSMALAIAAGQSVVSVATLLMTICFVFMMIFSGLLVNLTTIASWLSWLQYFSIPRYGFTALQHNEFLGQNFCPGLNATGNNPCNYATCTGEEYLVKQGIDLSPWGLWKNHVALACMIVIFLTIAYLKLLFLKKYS

[2] = target: T1, ABCG2; experiment: mitoxantrone accumulation ([…]) and 5D3 conformational staining ([…]) in HEK293/ABCG2 cells; assay type: cell-based
[3] = target: T1, ABCG2; experiment: reference inhibitor; mitoxantrone accumulation, 5D3 conformational staining and sensitization IC50 in HEK293/ABCG2 cells; assay type: cell-based

Structure (SMILES) | mitoxantrone accumulation (3 μM) and 5D3 conformational staining (10 μM) in HEK2 [2] | other results
O=C1c2c(O)ccc(O)c2C(=O)c2c(NCCNCCO)ccc(NCCNCCO)c21 [mitoxantrone] | – | Km [1]: 2.3 µM
O=C(CSc1nc2ccc(Nc3nc(Nc4ccccc4)nc(Nc4ccccc4)n3)cc2s1)N1CCCC1 [E2] | All three analogues had similar activity as PZ-39 in enhancing mitoxantrone accumulation | –
COc1ccc2c3c([nH]c2c1)[C@H](C=C(C)C)N1C(=O)[C@@H]2CCCN2C(=O)[C@@H]1C3 [FTC, Fumitremorgin C] | – | IC50 (μM) / Inhibitor+MX ^a [3]: 0.387 ± 0.054 µM
CC(=O)CSc1nc2ccc(Nc3nc(N4CCOCC4)nc(N4CCOCC4)n3)cc2s1 [C8] | All three analogues had similar activity as PZ-39 in enhancing mitoxantrone accumulation | –
CC(C)(C)NC(=O)CSc1nc2ccc(Nc3nc(N4CCOCC4)nc(N4CCOCC4)n3)cc2s1 [C6] | All three analogues had similar activity as PZ-39 in enhancing mitoxantrone accumulation | –
